# Positions of bridges follow the written chain, without caps; N, C: chain ends. Non-standard residues stand in square brackets, D forms with d. Residues, ends and D or L forms follow the SMILES beside them. *: point of attachment. Ileψ(thiazoline)Cys = CC[C@H](C)[C@H](N)C1=N[C@H](C(=O)*)CS1; dOrn = NCCC[C@@H](N)C(=O)O
# Tests used:
# [1] = test system: Enterobacter aerogenes C32; experiment: Standard agar-dilution assay, MIC; format: cell-based; conditions: Klebsiella aerogenes, 24-hour incubation
# Experimental: (§1) The A80789 compounds have antibacterial and anticoccidial activity. A80789 compounds are especially active against anaerobic bacteria. The minimal inhibitory concentrations (MIC's) at which A80789 inhibits various bacteria, as determined by standard agar-dilution assays, are summarized in Tables III and IV. End points were read after 24-hour incubation.
# [2] = test system: Enterobacter aerogenes EB17; experiment: Standard agar-dilution assay, MIC; format: cell-based; conditions: Klebsiella aerogenes, 24-hour incubation
# Experimental: as §1
# [3] = test system: Escherichia coli EC14; experiment: Standard agar-dilution assay, MIC; format: cell-based; conditions: 24-hour incubation
# Experimental: as §1
# [4] = test system: Escherichia coli N10; experiment: Standard agar-dilution assay, MIC; format: cell-based; conditions: 24-hour incubation
# Experimental: as §1
# [5] = test system: Escherichia coli TEM; experiment: Standard agar-dilution assay, MIC; format: cell-based; conditions: 24-hour incubation
# Experimental: as §1
# [6] = test system: Haemophilus influenzae 76; experiment: Standard agar-dilution assay, MIC; format: cell-based; conditions: 24-hour incubation
# Experimental: as §1
# [7] = test system: Haemophilus influenzae C.L.; experiment: Standard agar-dilution assay, MIC; format: cell-based; conditions: 24-hour incubation
# Experimental: as §1
# [8] = test system: Klebsiella sp.; experiment: Standard agar-dilution assay, MIC; format: cell-based; conditions: 24-hour incubation
# Experimental: as §1
# [9] = test system: Proteus sp.; experiment: Standard agar-dilution assay, MIC; format: cell-based; conditions: 24-hour incubation
# Experimental: as §1
# [10] = test system: Pseudomonas aeruginosa PS18; experiment: Standard agar-dilution assay, MIC; format: cell-based; conditions: 24-hour incubation
# Experimental: as §1
# [11] = test system: Pseudomonas aeruginosa PS72; experiment: Standard agar-dilution assay, MIC; format: cell-based; conditions: 24-hour incubation
# Experimental: as §1
# [12] = test system: Pseudomonas aeruginosa X239; experiment: Standard agar-dilution assay, MIC; format: cell-based; conditions: 24-hour incubation
# Experimental: as §1
# [13] = test system: Pseudomonas aeruginosa X528; experiment: Standard agar-dilution assay, MIC; format: cell-based; conditions: 24-hour incubation
# Experimental: as §1
# [14] = test system: Salmonella sp; experiment: Standard agar-dilution assay, MIC; format: cell-based; conditions: 24-hour incubation
# Experimental: as §1
# [15] = test system: Serratia marcescens X99; experiment: Standard agar-dilution assay, MIC; format: cell-based; conditions: 24-hour incubation
# Experimental: as §1
# [16] = test system: Shigella sonnei; experiment: Standard agar-dilution assay, MIC; format: cell-based; conditions: 24-hour incubation
# Experimental: as §1
# [17] = test system: Staphylococcus aureus S13E; experiment: Standard agar-dilution assay, MIC; format: cell-based; conditions: 24-hour incubation
# Experimental: as §1
# [18] = test system: Staphylococcus aureus V41; experiment: Standard agar-dilution assay, MIC; format: cell-based; conditions: 24-hour incubation
# Experimental: as §1
# [19] = test system: Staphylococcus aureus X1.1; experiment: Standard agar-dilution assay, MIC; format: cell-based; conditions: 24-hour incubation
# Experimental: as §1
# [20] = test system: Staphylococcus aureus X400; experiment: Standard agar-dilution assay, MIC; format: cell-based; conditions: 24-hour incubation
# Experimental: as §1
# [21] = test system: Staphylococcus epidermidis 222; experiment: Standard agar-dilution assay, MIC; format: cell-based; conditions: 24-hour incubation
# Experimental: as §1
# [22] = test system: Staphylococcus epidermidis Epi 1; experiment: Standard agar-dilution assay, MIC; format: cell-based; conditions: EPI1, 24-hour incubation
# Experimental: as §1
# [23] = test system: Streptococcus faecalis 2041; experiment: Standard agar-dilution assay, MIC; format: cell-based; conditions: 24-hour incubation, reclassified as Enterococcus faecalis 2041
# Experimental: as §1
# [24] = test system: Streptococcus faecium X66; experiment: Standard agar-dilution assay, MIC; format: cell-based; conditions: 24-hour incubation, reclassified as Enterococcus faecium X66
# Experimental: as §1
# [25] = test system: Streptococcus pneumoniae Park 1; experiment: Standard agar-dilution assay, MIC; format: cell-based; conditions: PARK1, 24-hour incubation
# Experimental: as §1
# [26] = test system: Streptococcus pyogenes C203; experiment: Standard agar-dilution assay, MIC; format: cell-based; conditions: 24-hour incubation
# Experimental: as §1
# [27] = test system: Bacteroides corredens 1874; experiment: Standard agar-dilution assay, MIC (anaerobic bacteria); format: cell-based; conditions: 24-hour incubation
# Experimental: as §1
# [28] = test system: Bacteroides fragilis 111; experiment: as above; format: cell-based; conditions: 24-hour incubation
# Experimental: as §1
# [29] = test system: Bacteroides fragilis 1877; experiment: as above; format: cell-based; conditions: 24-hour incubation
# Experimental: as §1
# [30] = test system: Bacteroides fragilis 1936B; experiment: as above; format: cell-based; conditions: 24-hour incubation
# Experimental: as §1
# [31] = test system: Bacteroides melaninogenicus 1856/28; experiment: as above; format: cell-based; conditions: Prevotella intermedia, 24-hour incubation
# Experimental: as §1
# [32] = test system: Bacteroides melaninogenicus 2736; experiment: as above; format: cell-based; conditions: 24-hour incubation
# Experimental: as §1
# [33] = test system: Bacteroides thetaiotaomicron 1438; experiment: as above; format: cell-based; conditions: 24-hour incubation
# Experimental: as §1
# [34] = test system: Bacteroides vulgatis 1211; experiment: as above; format: cell-based; conditions: 24-hour incubation
# Experimental: as §1
# [35] = test system: Clostridium difficile 2994; experiment: as above; format: cell-based; conditions: Clostridioides difficile, 24-hour incubation
# Experimental: as §1
# [36] = test system: Clostridium septicum 1128; experiment: as above; format: cell-based; conditions: 24-hour incubation
# Experimental: as §1
# [37] = test system: Eubacterium aerofaciens 1235; experiment: as above; format: cell-based; conditions: Collinsella aerofaciens, 24-hour incubation
# Experimental: as §1
# [38] = test system: Fusobacterium necrophorum 6054A; experiment: as above; format: cell-based; conditions: 24-hour incubation
# Experimental: as §1
# [39] = test system: Fusobacterium symbiosum 1470; experiment: as above; format: cell-based; conditions: 24-hour incubation
# Experimental: as §1
# [40] = test system: Peptococcus asaccharolyticus 1302; experiment: as above; format: cell-based; conditions: Peptoniphilus asaccharolyticus, 24-hour incubation
# Experimental: as §1
# [41] = test system: Peptococcus prevoti 1281; experiment: as above; format: cell-based; conditions: 24-hour incubation
# Experimental: as §1
# [42] = test system: Peptostreptococcus anaerobius 1428; experiment: as above; format: cell-based; conditions: 24-hour incubation
# Experimental: as §1
# [43] = test system: Peptostreptococcus intermedius 1264; experiment: as above; format: cell-based; conditions: 24-hour incubation
# Experimental: as §1
# [44] = test system: Propionibacterium acnes 79; experiment: as above; format: cell-based; conditions: Cutibacterium acnes, 24-hour incubation
# Experimental: as §1
# [45] = test system: Clostridium perfringens 81; experiment: microbe, parasite or virus in culture; format: cell-based; conditions: Clostridium perfringens, 81, 24 h
# [46] = test system: Eimeria acervulina; experiment: Feeding experiments in infected chicks; format: in vivo; conditions: in the feed of young chickens; chicks infected with Eimeria acervulina
# [47] = test system: HSV I; experiment: microbe, parasite or virus in culture; format: cell-based, Herpes (HSV I); conditions: read-out: level at which active
# [48] = test system: HSV II; experiment: microbe, parasite or virus in culture; format: cell-based, Herpes (HSV II); conditions: tissue-culture tests; read-out: level at which active
# [49] = test system: Vaccina; experiment: microbe, parasite or virus in culture; format: cell-based; conditions: tissue-culture tests; read-out: level at which active
# [50] = test system: Great Lakes influenza; experiment: microbe, parasite or virus in culture; format: cell-based; conditions: read-out: level at which active
# [51] = test system: Para influenza; experiment: microbe, parasite or virus in culture; format: cell-based; conditions: read-out: level at which active
# [52] = test system: Rhino viruses; experiment: microbe, parasite or virus in culture; format: cell-based; conditions: tissue-culture tests; read-out: level at which active
# [53] = test system: Pseudorabies virus; experiment: microbe, parasite or virus in culture; format: cell-based; conditions: Suid alphaherpesvirus 1, read-out: level at which active
# [54] = test system: adult housefly; experiment: Insecticidal activity; format: in vivo
# Description: The A80789 compounds are also useful as insecticides. For example, A80789 is active against adult housefly at levels as low as 100 ppm.
# [55] = Solubility; format: physicochemical; conditions: free acid form
# [56] = test system: Culture A80789; experiment: Antibiotic sensitivity disc test on the producing culture; format: cell-based, Streptomyces hygroscopicus; conditions: ISP No. 2 agar
# Experimental: Resistance to antibiotics was measured by padding antibiotic sensitivity discs onto the surface of seeded ISP No. 2 agar plates. Resistance was scored as (+) when no zone of inhibition was observed and as (-) when a zone of inhibition was observed.
compound,measurement,setting,value
COC1CCC(OC2C(C)C3(OC(CC4OC(O)(C(C)C(=O)O)C(C)C(OC)C4C)CC(OC)C3C)OC2(C)C2CCC(C3CCC(C4OC(C)(O)C(C)CC4C)O3)O2)OC1C (stereo not shown) [A80789],MIC,[1],> 128 µg/mL
same,MIC,[2],> 128 µg/mL
same,MIC,[3],> 128 µg/mL
same,MIC,[4],> 128 µg/mL
same,MIC,[5],> 128 µg/mL
same,MIC,[6],> 128 µg/mL
same,MIC,[7],> 128 µg/mL
same,MIC,[8],> 128 µg/mL
same,MIC,[9],> 128 µg/mL
same,MIC,[10],> 128 µg/mL
same,MIC,[11],> 128 µg/mL
same,MIC,[12],> 128 µg/mL
same,MIC,[13],> 128 µg/mL
same,MIC,[14],> 128 µg/mL
same,MIC,[15],> 128 µg/mL
same,MIC,[16],> 128 µg/mL
same,MIC,[17],0.25 µg/mL
same,MIC,[18],0.25 µg/mL
same,MIC,[19],0.25 µg/mL
same,MIC,[20],0.25 µg/mL
same,MIC,[21],0.125 µg/mL
same,MIC,[22],0.25 µg/mL
same,MIC,[23],> 128 µg/mL
same,MIC,[24],> 128 µg/mL
same,MIC,[25],0.03 µg/mL
same,MIC,[26],0.03 µg/mL
same,MIC,[27],8 µg/mL
same,MIC,[28],8 µg/mL
same,MIC,[29],8 µg/mL
same,MIC,[30],8 µg/mL
same,MIC,[31],4 µg/mL
same,MIC,[32],8 µg/mL
same,MIC,[33],128 µg/mL
same,MIC,[34],1 µg/mL
same,MIC,[35],0.5 µg/mL
same,MIC,[36],0.5 µg/mL
same,MIC,[37],0.5 µg/mL
same,MIC,[38],2 µg/mL
same,MIC,[39],2 µg/mL
same,MIC,[40],≤ 0.03 µg/mL
same,MIC,[41],0.125 µg/mL
same,MIC,[42],0.25 µg/mL
same,MIC,[43],0.125 µg/mL
same,MIC,[44],0.25 µg/mL
same,MIC,[45],0.5 µg/mL
same,level in feed (as low as) that caused a reduction in the number of lesions,[46],100 ppm
same,minimal effective concentration,[47],2000 µg/mL
same,minimal effective concentration,[48],2000 µg/mL
same,minimal effective concentration,[49],2000 µg/mL
same,minimal effective concentration,[50],2000 µg/mL
same,minimal effective concentration,[51],2000 µg/mL
same,minimal effective concentration,[52],2000 µg/mL
same,minimal effective concentration,[53],< 0.078 µg/mL
same,level (as low as) at which active,[54],100 ppm
same,Solubility,[55]; in water,Insoluble
same,Solubility,"[55]; lower alcohols such as methanol, acetone, ethyl acetate, chloroform, diethyl ether, benzene, toluene, warm hexane",soluble
CC[C@H](C)[C@H](N)C1=N[C@H](C(=O)N[C@@H](CC(C)C)C(=O)N[C@H](CCC(=O)O)C(=O)N[C@H](C(=O)N[C@H]2CCCCNC(=O)[C@H](CC(N)=O)NC(=O)[C@@H](CC(=O)O)NC(=O)[C@H](Cc3cnc[nH]3)NC(=O)[C@@H](Cc3ccccc3)NC(=O)[C@H]([C@@H](C)CC)NC(=O)[C@@H](CCCN)NC2=O)[C@@H](C)CC)CS1 [bacitracin] ({Ileψ(thiazoline)Cys}-L[dE]IK[dOrn]I[dF]H[dD]N; lactam 4-C),Resistance of culture to antibiotic,[56]; disc 10 units,sensitive
CC(=O)OCC1=C(C(=O)O)N2C(=O)[C@@H](NC(=O)Cc3cccs3)[C@H]2SC1 [cephalothin],Resistance of culture to antibiotic,[56]; disc 30 mcg,sensitive
CCC[C@@H]1C[C@@H](C(=O)N[C@@H]([C@H]2O[C@H](SC)[C@H](O)[C@@H](O)[C@H]2O)[C@@H](C)O)N(C)C1 [lincomycin],Resistance of culture to antibiotic,[56]; disc 2 mcg,resistant
CO[C@H]1C[C@H](O[C@H]2[C@H](C)[C@@H](O[C@@H]3O[C@H](C)C[C@H](N(C)C)[C@H]3O)[C@@H](C)C[C@@]3(CO3)C(=O)[C@H](C)[C@@H](O)[C@@H](C)[C@@H](C)OC(=O)[C@@H]2C)O[C@@H](C)[C@@H]1O [oleandomycin],Resistance of culture to antibiotic,[56]; disc 15 mcg,sensitive
CC1(C)S[C@@H]2[C@H](NC(=O)Cc3ccccc3)C(=O)N2[C@H]1C(=O)O [penicillin G],Resistance of culture to antibiotic,[56]; disc 10 units,resistant
